Where “and” joins values, the source holds several entries; their conditions need not be identical. Identical values can stand only once.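 1) Cells in 96-well plates. 2) Compound, 48 h, 5 concentrations. 3) Linear interpolation between surrounding doses. 4) Unreached endpoint = highest concentration. Abbreviation: GI50, concentration required for 50% inhibition of growth. At the TGI there is no net growth.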
Columns and labels:
Test in all cases: NCI-60 cell line screen, 48 h
CCRF-CEM leukemia = tested on: CCRF-CEM leukemia
HCC-2998 colon = tested on: HCC-2998 colon
K-562 leukemia = tested on: K-562 leukemia
KM12 colon = tested on: KM12 colon
MOLT-4 leukemia = tested on: MOLT-4 leukemia
NCI-H226 lung = tested on: NCI-H226 lung
RPMI-8226 leukemia = tested on: RPMI-8226 leukemia
SK-MEL-28 melanoma = tested on: SK-MEL-28 melanoma
SK-OV-3 ovarian = tested on: SK-OV-3 ovarian
UACC-62 melanoma = tested on: UACC-62 melanoma

SMILES | TGI (CCRF-CEM leukemia) | TGI (HCC-2998 colon) | TGI (K-562 leukemia) | TGI (KM12 colon) | TGI (MOLT-4 leukemia) [µM] | TGI (NCI-H226 lung) [µM] | TGI (RPMI-8226 leukemia) [µM] | TGI (SK-MEL-28 melanoma) | TGI (SK-OV-3 ovarian) | TGI (UACC-62 melanoma) | GI50 (CCRF-CEM leukemia) [µM] | GI50 (HCC-2998 colon) [µM] | GI50 (K-562 leukemia) [µM] | GI50 (KM12 colon) [µM] | GI50 (MOLT-4 leukemia) [µM] | GI50 (NCI-H226 lung) [µM] | GI50 (RPMI-8226 leukemia) [µM] | GI50 (SK-MEL-28 melanoma) [µM] | GI50 (SK-OV-3 ovarian) [µM] | GI50 (UACC-62 melanoma) [µM]
Nc1nc(-c2ccc3ccccc3c2)cc(-c2cc(-c3ccc4ccccc4c3)nc(N)n2)n1 | > 100 µM | > 100 µM | > 100 µM | > 100 µM | > 100 | > 100 | > 100 | > 100 µM | > 100 µM | > 100 µM | – | – | – | – | – | – | – | – | – | –
Cc1cc(Cl)ccc1Nc1nc2c(s1)C(=O)c1ccccc1C2=O | > 26.3 µM | 16.1 µM | > 23.3 µM | 10.7 µM | > 25.4 | 13.7 | 11.1 | 4.14 µM | 26.1 µM | 7.41 µM | – | – | – | – | – | – | – | – | – | –
COc1ccc(Nc2ncccc2C(=O)NCc2cn(Cc3cccc(Oc4ccccc4)c3)nn2)c(OC)c1 | > 100 µM | > 29 µM | > 100 µM | > 100 µM | > 100 | > 26.7 | > 100 | > 100 µM | > 30.1 µM | > 29.6 µM | 2.08 | 2.64 | 1.58 | 1.11 | 4.02 | 2.72 | 5.33 | 5.27 | 2.13 | 1.19
Oc1[nH]c2ccccc2c1/C=c1/ccc2c(c1)N=C(c1cc(F)cc(F)c1)N=2 | 6.91 µM | 20.7 µM | 13.8 µM | 19 µM | 14.6 | 34.5 | 17.5 | 20.2 µM | 29 µM | 20.3 µM | 2.44 | 5.65 | 3.28 | 4.36 | 3.53 | 11.4 | 3.22 | 7.24 | 14.2 | 4.18
CCCCCCn1c2c(c3c(O)cccc31)C(=O)c1ccccc1-2 | 50 µM | 29.4 µM | 58.4 µM | 34.4 µM | > 100 | 39.7 | 41.9 | > 100 µM | > 100 µM | 31.7 µM | 23.2 | 15.7 | 23.7 | 17.6 | 28.7 | 21.6 | 20.3 | 35.9 | 36.3 | 17.5
C=CCn1c(=O)c(C(=O)NC(=O)OCC)cn(C2CCCCC2)c1=O | > 100 µM | > 100 µM | > 100 µM | > 100 µM | > 100 | > 100 | > 100 | > 100 µM | > 100 µM | > 100 µM | – | – | – | – | – | – | – | – | – | –
O=c1sc(-c2nc3ccccc3[nH]2)c(/N=C/c2ccccc2)n1-c1ccccc1 | > 100 µM | > 100 µM | > 100 µM | > 100 µM | > 100 | 38.3 | > 100 | > 100 µM | 89.1 µM | > 100 µM | – | – | – | – | – | – | – | – | – | –
Cn1cc(-c2ccc3nnc(C(F)(F)c4ccc5ncccc5c4)n3n2)cn1 | > 100 µM | > 100 µM | > 100 µM | > 100 µM | > 100 | > 100 | > 100 | > 100 µM | > 100 µM | > 100 µM | 98.7 | > 100 | 78.1 | 43.6 | 52.5 | 58.5 | 88.6 | > 85.8 | > 86.4 | 66.1
CC(O)c1ccc(C(O)/C(=N\NC(=O)c2ccncc2)c2nc3ccc([N+](=O)[O-])cc3[nH]c2=O)cc1 (stereo not drawn) | > 100 µM | > 100 µM | > 100 µM | > 100 µM | > 100 | > 100 | > 100 | > 100 µM | > 100 µM | > 100 µM | – | – | – | – | – | – | – | – | – | –
O=C(NC(Cc1ccccc1)C(=O)CCl)OCc1ccccc1 (stereo not drawn) | 13.8 µM and 11.6 µM | 28.8 µM and 32.2 µM | > 100 µM and 40.1 µM | 22.2 µM and 21.7 µM | 25.4 | 55.5 | – | 19.3 µM and 25.3 µM | 29.7 µM and 27.6 µM | 17.7 µM and 21.2 µM | 2.34 | 12.3 | 2.65 | – | 3.56 | 13.4 | 2.44 | 5.55 | 11.9 | 4.52
CCOC(=O)Nc1cc(-c2ccc(C)c(NS(C)(=O)=O)c2)nn2c(C)nnc12 | 14.9 µM | 3.37 µM | > 100 µM | 19.7 µM | 9.94 | 24.4 | 4.97 | > 100 µM | 5.66 µM | 18.5 µM | 1.01 | 1.59 | 1.73 | 2.02 | 2.45 | 3.93 | 0.549 | 2.69 | 1.21 | 0.445
[Au+].c1c[n-]cn1.c1ccc([PH+](c2ccccc2)c2ccccc2)cc1 | 17.3 µM | 30.5 µM | 30.4 µM | 37.9 µM | 5.15 | 51.3 | > 90.8 | 6.87 µM | 30.4 µM | 29.2 µM | 1.78 | 13.8 | 2.61 | 14.5 | 2.07 | 12.8 | 8.93 | 2.29 | 16.8 | 5.17
Cc1nc(-n2nc(-c3ccccc3)cc2-c2ccccc2)sc1C(/C=C/c1ccc([N+](=O)[O-])cc1)=N/NC(N)=S | 90.2 µM | 74 µM | 62.7 µM | > 100 µM | 81.4 | > 100 | 45 | > 100 µM | > 100 µM | > 100 µM | – | – | – | – | – | – | – | – | – | –
CCCCC1N=CNc2c1ccc1c2[nH]c2ccccc21 (stereo not drawn) | 5.89 µM | 3.01 µM | 5.4 µM | 41.8 µM | 6.51 | > 61.1 | 5.13 | 24.6 µM | 11.3 µM | 8.94 µM | – | – | – | – | – | – | – | – | – | –
O=C(c1ccccc1)c1c2n(c3c1cc(O)c1ccccc13)CCN2 | 4.67 µM | 18.9 µM | 8.2 µM | 8.88 µM | 4.45 | 41.3 | 6.47 | 27.3 µM | 25.2 µM | 17.4 µM | 1.99 | 6.11 | 2.56 | 3.08 | 2.06 | 18.6 | 2.42 | 12.1 | 11.1 | 5.15
O=C(CC1(O)C(=O)Nc2ccc([N+](=O)[O-])cc21)c1ccc(Br)cc1 (stereo not drawn) | > 100 µM | > 100 µM | > 100 µM | > 100 µM | > 100 | > 100 | > 100 | > 100 µM | > 100 µM | > 100 µM | – | – | – | – | – | – | – | – | – | –
N/C(=N\C(N)=N\c1nc2ccccc2s1)c1ccnc(Br)c1 | > 100 µM | > 100 µM | > 100 µM | > 100 µM | > 100 | > 100 | > 100 | > 100 µM | > 100 µM | > 100 µM | 3.7 | 66 | 3.46 | 5.19 | 4.35 | 15.9 | 4.29 | 8.7 | 5.95 | 4.47
Cc1cc2nc3c4cc([N+](=O)[O-])ccc4n(CCN(C)C)c3nc2cc1C | 21.3 µM | 2.34 µM | > 100 µM | > 100 µM | 8.68 | 5.81 | 3.19 | 2.48 µM | > 43.4 µM | 2.13 µM | 0.642 | 0.683 | 0.366 | 0.56 | 0.373 | 0.966 | 0.459 | 0.967 | 0.905 | 0.594
CCN(CC)CC(O)c1cc(-c2ccc(Cl)cc2)nc2cc(Cl)ccc12 (stereo not drawn) | 5.56 µM | 3.1 µM | 3.55 µM | 3.18 µM | 3.48 | 7.15 | 6.15 | 3.21 µM | 12 µM | 3.1 µM | 2.52 | 1.67 | 1.75 | 1.7 | 1.68 | 2.21 | 2.43 | 1.76 | 3.44 | 1.62
O=C(NCCCl)NCc1ccccc1 | > 100 µM | > 100 µM | > 100 µM | > 100 µM | > 100 | > 100 | > 100 | > 100 µM | > 100 µM | > 100 µM | – | – | – | – | – | – | – | – | – | –
c1cnc2nc3n(c2c1)CSC3 | > 100 µM | > 100 µM | > 100 µM | > 100 µM | > 100 | > 100 | > 100 | > 100 µM | > 100 µM | > 100 µM | – | – | – | – | – | – | – | – | – | –
COc1ccc2c(c1)CC1N(C)CCC13CCCCC23 (stereo not drawn) | > 100 µM | > 100 µM | > 100 µM | > 100 µM | > 100 | > 100 | > 100 | > 100 µM | > 100 µM | > 100 µM | – | – | – | – | – | – | – | – | – | –
COc1cc([C@@H]2c3cc4c(cc3[C@@H](NC(=O)c3ccc(OC(C)=O)cc3)C3COC(=O)[C@@H]32)OCO4)cc(OC)c1O (stereo partly drawn) | > 100 µM | 14.7 µM | 47.2 µM | 11.9 µM | 2.93 | 4.46 | 13.2 | 23.5 µM | 7.88 µM | 3.14 µM | – | – | – | – | – | – | – | – | – | –
COc1ccc2c(c1)C(=O)c1c-2c(OCCN2CCCCC2)nc2ccc(OC)cc12 | 2.66 µM | 9.24 µM | 2.76 µM | 2.1 µM | 1.81 | 2.82 | 2.67 | 12.8 µM | 16.4 µM | 6.3 µM | 0.197 | 1.23 | 0.413 | 0.585 | 0.305 | 0.705 | 0.474 | 3.52 | 2.02 | 1.35
Nc1nc(Cl)nc2c1ncn2C1OC(CO)C(O)C1O (stereo not drawn) | > 100 µM | > 100 µM | > 100 µM | > 100 µM | > 41.2 | > 100 | > 100 | > 100 µM | > 100 µM | > 100 µM | 0.264 | > 21.9 | > 85.3 | > 100 | 0.493 | > 100 | > 100 | > 100 | 7.5 | 5.7
Cc1ccnc(NC(c2ccccc2)c2ccc3cccnc3c2O)c1 (stereo not drawn) | > 100 µM | > 100 µM | > 100 µM | > 100 µM | > 100 | 44.6 | > 100 | > 100 µM | > 100 µM | 87.9 µM | 2.43 | 7.12 | 3.27 | 4.15 | 2.53 | 4.48 | 8.19 | 13.8 | 4.36 | 4.42

From PubChem BioAssay (NCI)
